Laboratory results: article PMC4076017 (ACS Chemical Biology, 2014)
Values joined by “and” are separate entries in the source; they are usually repeats but may differ in a detail not shown here. Equal values may be shown once.

Tests used:
YpDHPS [1] = molecular target: T1, YpDHPS (Yersinia pestis, UniProt A0A2S9PLG4); assay type: biochemical
SaDHPS [2] = molecular target: T2, SaDHPS (Staphylococcus aureus, UniProt O05701); assay: DHPS enzyme inhibition assay; assay type: biochemical
SaDHPS [3] = molecular target: T2, SaDHPS; assay: Michaelis-Menten kinetics in the presence of compound 11; assay type: biochemical; settings: pABA 0 to 10 μM
Antimicrobial activity = assay type: cell-based
Aqueous solubility = assay type: physicochemical
BaDHPS [4] = molecular target: T3, BaDHPS (Bacillus anthracis, UniProt Q81VW8); assay: biochemical
T3 sequence (Q81VW8 1-280): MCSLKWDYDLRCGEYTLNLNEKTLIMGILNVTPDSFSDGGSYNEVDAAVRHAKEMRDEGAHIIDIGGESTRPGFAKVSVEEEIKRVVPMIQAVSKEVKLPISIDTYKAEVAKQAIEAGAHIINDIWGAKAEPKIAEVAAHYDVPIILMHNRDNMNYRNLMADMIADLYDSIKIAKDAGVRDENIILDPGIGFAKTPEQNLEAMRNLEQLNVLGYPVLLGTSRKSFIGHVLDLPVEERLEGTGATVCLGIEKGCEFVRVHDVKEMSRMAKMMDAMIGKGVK

[5] = LC-MS stability in conditions that recapitulate the crystallization conditions; assay type: physicochemical; settings: conditions that recapitulate the crystallization conditions (pH and time)
YpDHPS [6] = molecular target: T1, YpDHPS; assay: biochemical
BaDHPS [7] = molecular target: T3, BaDHPS; assay type: biochemical
BaDHPS [8] = molecular target: T3, BaDHPS; assay: biochemical; assay type: binding

T2 sequence (O05701 whole entry): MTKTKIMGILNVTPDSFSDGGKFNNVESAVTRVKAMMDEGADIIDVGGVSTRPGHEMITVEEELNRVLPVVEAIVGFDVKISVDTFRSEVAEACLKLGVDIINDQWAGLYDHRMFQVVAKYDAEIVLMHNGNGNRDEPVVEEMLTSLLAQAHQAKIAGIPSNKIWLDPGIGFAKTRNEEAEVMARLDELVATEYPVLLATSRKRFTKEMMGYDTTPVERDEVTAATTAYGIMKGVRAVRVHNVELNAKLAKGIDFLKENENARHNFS
T1 sequence (A0A2S9PLG4 1-277): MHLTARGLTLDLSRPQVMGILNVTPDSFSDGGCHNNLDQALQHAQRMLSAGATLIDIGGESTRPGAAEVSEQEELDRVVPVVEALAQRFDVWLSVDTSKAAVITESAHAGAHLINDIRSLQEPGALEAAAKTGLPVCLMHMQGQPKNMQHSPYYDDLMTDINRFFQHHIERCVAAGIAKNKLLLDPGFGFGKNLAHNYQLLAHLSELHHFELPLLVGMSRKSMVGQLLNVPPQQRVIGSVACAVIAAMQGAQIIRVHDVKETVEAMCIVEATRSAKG

SMILES: FC(F)(F)c1ccc(/C=N/Cc2ccc(C(F)(F)F)cc2)cc1 [Compound 11, (E)-N-(4-(Trifluoromethyl)benzylidene)-1-(4-(trifluoromethyl)phenyl) Methanamine]
- Kmobs (YpDHPS [1]): 1.8 µM and 1.2 µM
- IC50 (SaDHPS [2]): 17 µM
- inhibition at 250 µM (SaDHPS [2]; read-out: inhibition of SaDHPS): 100%
- Kmobs (SaDHPS [3]; 50 μM compd 11, DHPP 20 μM): 2.7 µM
- Vmaxobs (SaDHPS [3]; 50 μM compd 11, DHPP 20 μM): 211.2 nM/min
- Kmobs (SaDHPS [3]; 100 μM compd 11, DHPP 20 μM): 0.38 µM
- Vmaxobs (SaDHPS [3]; 100 μM compd 11, DHPP 20 μM): 31.19 nM/min
- antimicrobial activity (Antimicrobial activity): lacks antimicrobial activity
- aqueous solubility (Aqueous solubility): limited aqueous solubility
- IC50 (BaDHPS [4]): 50 µM
- inhibition at 250 µM (BaDHPS [4]; read-out: inhibition of BaDHPS): 100%
- stability by liquid chromatography-mass spectrometric analysis [5]: stable
- IC50 (YpDHPS [6]): 31 µM
- inhibition at 250 µM (YpDHPS [6]; read-out: inhibition of YpDHPS): 100%
- Kmobs (BaDHPS [7]): 1.0 µM and 0.74 µM
- Vmaxobs (BaDHPS [7]): 106.7 nM/min and 70.81 nM/min
- Kd (BaDHPS [8]): 130 ± 1 µM
- increase in binding affinity of pABA to DHPS in the presence of 11 (BaDHPS [8]): 2 fold
